Source: patent US20230399373A1, “MOLECULAR DESIGNS OF GLUCOSE-RESPONSIVE AND GLUCOSE-CLEAVABLE INSULIN ANALOGUES” (THE TRUSTEES OF INDIANA UNIVERSITY, priority 2020, published 2023)

Key:
Type in all cases: cell-based
HepG2 cells = experiment: PCR assays of ligand-selective metabolic gene regulation (PEPCK, ChREBP, SREBP) in HepG2 cells; conditions: control studies
Method: Insulin-signaling in hepatocytes extends to metabolic transcriptional regulation as recapitulated in HepG2 cells. […] Control studies were undertaken in the absence of insulin analogs to assess potential confounding changes in metabolic gene expression on addition of 0 to 100 mM fructose or 0 to 100 mM glucose.

IR [1] = experiment: 96-well plate assay of dose-dependent and ligand-selective IR autophosphorylation
Method: Quantitative dose-dependent and ligand-selective IR autophosphorylation were evaluated in a 96-well plate assay (FIG. 5A). FRI triggered a robust signal on addition of 50 mM fructose whereas baseline activity in the absence of fructose was low.

IR [2] = experiment: Western blot assays of fructose-dependent insulin signaling (IR autophosphorylation, p-AKT/AKT, p-FOXO1/FOXO1, p-GSK-3/GSK-3) in HepG2 cells; conditions: single hormone dose 50 nM
Method: Signal propagation was probed via a cytoplasmic kinase cascade and changes in metabolic gene expression in HepG2 cells. […] An overview of IR autophosphorylation (probed by anti-pTyr IR antibodies) and downstream phosphorylation of Ser-Thr protein kinase AKT (protein kinase B; ratio p-AKT/AKT), forkhead transcription factor 1 (p-FOXO1/FOXO1), and glycogen synthase kinase-3 (p-GSK-3/GSK-3) at a single hormone dose (50 nM) was provided by Western blot (WB; FIG. 4 D-F). […] The activity of FRI in the absence of fructose is low.

insulin lispro [KP] was tested, and the “fructose dependence of metabolic gene regulation” value (HepG2 cells) was “No fructose dependence”, the “IR autophosphorylation signal on addition of 50 mM fructose” value (IR [1]; 50 mM fructose) was “high signaling activity” and the “effect of addition of 50 mM glucose on IR autophosphorylation activity” value (IR [1]; 50 mM glucose) was “did not influence”. The “IR autophosphorylation baseline activity in the absence of fructose” value (IR [1]; no fructose) was “high signaling activity” and the “signaling by Western blot (IR autophosphorylation, p-AKT/AKT, p-FOXO1/FOXO1, p-GSK-3/GSK-3): dependence on fructose” value (IR [2]) was “fructose-independent signaling”.
